Experiments:
Assay in all cases: pIC50, kinobeads binding competition
Conditions in all cases: cell material: Jurkat lysate
[1] = target: T1, LATS1 (UniProt O95835)
T1 sequence (whole entry): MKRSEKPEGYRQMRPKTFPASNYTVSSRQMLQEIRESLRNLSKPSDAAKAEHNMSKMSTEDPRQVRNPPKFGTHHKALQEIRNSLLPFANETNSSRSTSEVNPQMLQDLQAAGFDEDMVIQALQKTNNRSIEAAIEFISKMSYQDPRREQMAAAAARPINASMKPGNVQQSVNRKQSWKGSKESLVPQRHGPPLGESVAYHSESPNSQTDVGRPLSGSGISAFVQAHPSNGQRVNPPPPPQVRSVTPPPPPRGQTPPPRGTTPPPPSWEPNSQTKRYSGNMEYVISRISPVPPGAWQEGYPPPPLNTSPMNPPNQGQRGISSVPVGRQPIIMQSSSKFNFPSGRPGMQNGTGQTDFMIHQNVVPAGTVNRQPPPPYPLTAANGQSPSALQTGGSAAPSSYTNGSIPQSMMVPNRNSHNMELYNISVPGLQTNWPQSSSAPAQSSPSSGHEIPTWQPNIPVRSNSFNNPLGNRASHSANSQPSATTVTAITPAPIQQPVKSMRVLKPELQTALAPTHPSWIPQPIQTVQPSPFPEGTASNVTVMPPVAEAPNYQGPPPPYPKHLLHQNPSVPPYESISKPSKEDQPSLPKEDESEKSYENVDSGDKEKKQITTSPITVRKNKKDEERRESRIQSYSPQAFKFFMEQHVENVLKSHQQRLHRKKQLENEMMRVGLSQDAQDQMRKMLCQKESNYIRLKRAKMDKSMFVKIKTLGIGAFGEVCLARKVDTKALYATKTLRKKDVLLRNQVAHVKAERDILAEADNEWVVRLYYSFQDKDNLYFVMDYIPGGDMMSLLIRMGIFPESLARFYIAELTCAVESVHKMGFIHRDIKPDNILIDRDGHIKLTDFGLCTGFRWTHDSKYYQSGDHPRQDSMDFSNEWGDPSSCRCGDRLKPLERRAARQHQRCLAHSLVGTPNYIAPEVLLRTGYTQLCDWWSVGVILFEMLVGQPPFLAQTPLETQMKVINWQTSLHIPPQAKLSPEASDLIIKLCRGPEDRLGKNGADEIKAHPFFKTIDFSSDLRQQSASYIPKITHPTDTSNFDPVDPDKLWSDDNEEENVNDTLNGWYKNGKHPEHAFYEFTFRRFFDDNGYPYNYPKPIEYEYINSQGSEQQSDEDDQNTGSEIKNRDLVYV

[2] = target: MAP3K4 (UniProt Q9Y6R4)
Sequence of MAP3K4 (Q9Y6R4 whole entry): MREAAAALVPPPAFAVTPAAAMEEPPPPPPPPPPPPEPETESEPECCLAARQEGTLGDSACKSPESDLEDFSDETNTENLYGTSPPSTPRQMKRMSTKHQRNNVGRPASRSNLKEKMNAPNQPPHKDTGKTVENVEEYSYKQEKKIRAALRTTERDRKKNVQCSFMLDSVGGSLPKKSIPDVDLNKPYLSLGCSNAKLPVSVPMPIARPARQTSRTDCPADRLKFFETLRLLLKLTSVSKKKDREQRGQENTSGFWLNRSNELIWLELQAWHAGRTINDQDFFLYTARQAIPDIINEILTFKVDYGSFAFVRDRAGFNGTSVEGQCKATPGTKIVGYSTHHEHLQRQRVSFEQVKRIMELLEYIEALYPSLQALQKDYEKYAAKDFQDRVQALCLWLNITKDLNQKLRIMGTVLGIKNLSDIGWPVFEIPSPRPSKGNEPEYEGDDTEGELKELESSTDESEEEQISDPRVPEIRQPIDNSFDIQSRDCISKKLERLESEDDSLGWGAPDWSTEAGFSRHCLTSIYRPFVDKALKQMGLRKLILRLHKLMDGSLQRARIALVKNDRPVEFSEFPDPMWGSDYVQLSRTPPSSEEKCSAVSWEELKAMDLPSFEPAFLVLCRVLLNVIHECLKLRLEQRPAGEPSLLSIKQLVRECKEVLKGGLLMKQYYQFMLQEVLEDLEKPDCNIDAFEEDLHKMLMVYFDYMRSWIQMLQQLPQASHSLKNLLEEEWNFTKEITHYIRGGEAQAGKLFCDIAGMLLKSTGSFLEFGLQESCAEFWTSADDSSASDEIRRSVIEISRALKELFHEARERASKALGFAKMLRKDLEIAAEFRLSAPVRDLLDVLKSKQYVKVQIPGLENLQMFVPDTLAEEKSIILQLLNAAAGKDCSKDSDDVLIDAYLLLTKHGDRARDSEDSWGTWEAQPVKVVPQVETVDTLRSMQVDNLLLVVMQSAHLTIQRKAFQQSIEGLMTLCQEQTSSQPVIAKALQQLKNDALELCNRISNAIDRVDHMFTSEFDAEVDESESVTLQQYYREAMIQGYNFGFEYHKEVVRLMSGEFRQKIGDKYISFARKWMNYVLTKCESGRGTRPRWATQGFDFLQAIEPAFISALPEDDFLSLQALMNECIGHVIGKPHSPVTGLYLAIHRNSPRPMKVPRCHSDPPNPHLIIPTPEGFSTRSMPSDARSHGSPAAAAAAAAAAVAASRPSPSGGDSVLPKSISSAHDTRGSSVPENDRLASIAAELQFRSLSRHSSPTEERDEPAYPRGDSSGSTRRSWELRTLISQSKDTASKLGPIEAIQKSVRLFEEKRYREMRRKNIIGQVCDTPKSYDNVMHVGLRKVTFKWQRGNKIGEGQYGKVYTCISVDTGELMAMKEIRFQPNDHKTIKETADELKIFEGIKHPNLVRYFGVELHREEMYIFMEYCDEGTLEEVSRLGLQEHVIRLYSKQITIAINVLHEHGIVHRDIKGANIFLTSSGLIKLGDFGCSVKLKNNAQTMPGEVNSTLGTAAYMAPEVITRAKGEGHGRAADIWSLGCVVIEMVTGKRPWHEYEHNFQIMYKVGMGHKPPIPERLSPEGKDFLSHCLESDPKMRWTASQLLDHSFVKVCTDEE

[3] = target: T2, MAP4K3 (UniProt Q8IVH8)
T2 sequence (whole entry): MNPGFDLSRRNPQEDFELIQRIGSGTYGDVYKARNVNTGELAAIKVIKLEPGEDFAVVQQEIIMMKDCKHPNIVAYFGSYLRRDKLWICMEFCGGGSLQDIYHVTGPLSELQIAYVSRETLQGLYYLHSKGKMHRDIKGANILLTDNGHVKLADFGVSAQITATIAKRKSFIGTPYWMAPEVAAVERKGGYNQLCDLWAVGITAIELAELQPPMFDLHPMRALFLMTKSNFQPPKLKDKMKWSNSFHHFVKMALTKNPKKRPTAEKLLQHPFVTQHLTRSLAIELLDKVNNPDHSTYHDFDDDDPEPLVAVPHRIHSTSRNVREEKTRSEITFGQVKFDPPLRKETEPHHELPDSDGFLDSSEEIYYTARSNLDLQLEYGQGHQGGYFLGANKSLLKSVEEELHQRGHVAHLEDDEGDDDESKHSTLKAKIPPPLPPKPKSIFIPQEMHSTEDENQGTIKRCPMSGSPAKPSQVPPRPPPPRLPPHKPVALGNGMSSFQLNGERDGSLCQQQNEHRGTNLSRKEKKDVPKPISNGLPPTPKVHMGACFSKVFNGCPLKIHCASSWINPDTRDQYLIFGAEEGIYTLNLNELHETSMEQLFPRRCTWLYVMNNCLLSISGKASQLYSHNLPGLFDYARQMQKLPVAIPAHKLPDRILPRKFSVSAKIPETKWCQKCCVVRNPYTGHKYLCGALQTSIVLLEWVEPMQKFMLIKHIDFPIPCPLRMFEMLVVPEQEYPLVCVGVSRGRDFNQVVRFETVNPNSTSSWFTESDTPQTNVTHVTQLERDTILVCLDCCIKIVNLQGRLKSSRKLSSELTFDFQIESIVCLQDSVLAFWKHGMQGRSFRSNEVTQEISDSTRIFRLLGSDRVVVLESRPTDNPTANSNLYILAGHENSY

[4] = target: T3, NEK3 (UniProt P51956)
T3 sequence (whole entry): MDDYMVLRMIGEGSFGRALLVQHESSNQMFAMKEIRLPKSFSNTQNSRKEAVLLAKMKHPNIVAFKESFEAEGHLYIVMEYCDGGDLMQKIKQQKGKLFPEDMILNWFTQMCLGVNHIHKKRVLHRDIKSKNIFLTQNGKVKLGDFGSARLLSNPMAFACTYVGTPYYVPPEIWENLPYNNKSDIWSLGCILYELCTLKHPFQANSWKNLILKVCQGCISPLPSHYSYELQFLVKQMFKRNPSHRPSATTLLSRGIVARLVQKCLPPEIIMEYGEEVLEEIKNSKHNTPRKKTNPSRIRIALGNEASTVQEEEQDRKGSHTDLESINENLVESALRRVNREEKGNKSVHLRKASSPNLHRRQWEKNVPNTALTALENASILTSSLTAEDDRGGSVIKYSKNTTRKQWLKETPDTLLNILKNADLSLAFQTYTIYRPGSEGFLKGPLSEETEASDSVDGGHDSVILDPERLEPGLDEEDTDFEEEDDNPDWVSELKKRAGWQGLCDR

[5] = target: STK33 (UniProt Q9BYT3)
Sequence of STK33 (Q9BYT3 whole entry, looked up): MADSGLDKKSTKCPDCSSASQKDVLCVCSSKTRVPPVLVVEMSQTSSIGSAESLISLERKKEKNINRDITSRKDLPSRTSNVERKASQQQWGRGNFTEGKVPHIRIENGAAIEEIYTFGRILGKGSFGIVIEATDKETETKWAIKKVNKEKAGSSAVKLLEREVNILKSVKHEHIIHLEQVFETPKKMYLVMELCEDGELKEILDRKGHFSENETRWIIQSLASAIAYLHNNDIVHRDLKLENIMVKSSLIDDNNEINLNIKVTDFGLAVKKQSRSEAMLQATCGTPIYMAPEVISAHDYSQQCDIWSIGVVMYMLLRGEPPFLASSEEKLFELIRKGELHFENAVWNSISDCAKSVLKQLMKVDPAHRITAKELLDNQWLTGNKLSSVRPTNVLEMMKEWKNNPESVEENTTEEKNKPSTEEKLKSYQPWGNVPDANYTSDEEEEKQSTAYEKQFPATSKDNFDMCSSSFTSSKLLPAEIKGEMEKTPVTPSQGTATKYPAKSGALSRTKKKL

[6] = target: T4, UniProt Q9UEE5
T4 sequence (whole entry): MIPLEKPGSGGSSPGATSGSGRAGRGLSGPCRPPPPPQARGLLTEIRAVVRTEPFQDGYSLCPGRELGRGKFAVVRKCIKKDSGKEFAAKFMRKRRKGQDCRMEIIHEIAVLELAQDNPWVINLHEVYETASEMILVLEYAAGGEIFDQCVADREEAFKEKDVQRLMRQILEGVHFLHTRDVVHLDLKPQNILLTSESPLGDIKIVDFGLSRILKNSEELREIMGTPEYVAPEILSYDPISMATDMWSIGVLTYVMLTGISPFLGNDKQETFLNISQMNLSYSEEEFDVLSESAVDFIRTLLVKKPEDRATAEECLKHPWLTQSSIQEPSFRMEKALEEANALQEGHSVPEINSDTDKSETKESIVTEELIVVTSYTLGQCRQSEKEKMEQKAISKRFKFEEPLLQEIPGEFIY

pIC50 [1]: < 4.52
pIC50 [2]: < 4.52
pIC50 [3]: < 4.52
pIC50 [4]: < 4.52
pIC50 [5]: < 4.52
pIC50 [6]: < 4.52
Structure (SMILES): CCc1cnn2c(NCc3ccc[n+]([O-])c3)cc(N3CCCC[C@H]3CCO)nc12 [dinaciclib]
